14 compounds from patent US10022453B2 (BAYER PHARMA AKTIENGESELLSCHAFT, priority 2013, dated 2018) can be followed below.

The test system of data set [1] is NCI-H292. Nature of the data set: Cytotoxic effects, MTT assay. In kind it is cell-based. To be noted: Homo sapiens, 72 h incubation. The method, then: The cells are cultivated by a standard method, as indicated in the […] (ATCC) for the respective cell lines.
At the end of the selected incubation time, the MTT reagent is incubated with the cells for 4 h, followed by lysis of the cells overnight by addition of the detergent. […] The proliferation of cells which were not treated with test substance but were otherwise identically treated was defined as the 100% figure.

A short description of data set [2]: Cell permeability, flux assay using Caco-2 cells. The conditions noted are these: human, Caco-2. The method, then: C-3 In Vitro Tests for Determining Cell Permeability
The cell permeability of a substance can be investigated by means of in vitro testing in a flux assay using Caco-2 cells [M. D. Troutman and D. R. Thakker, Pharm. […] For this purpose, the cells were cultured for 15-16 days on 24-well filter plates. For the determination of permeation, the respective working example was applied in a HEPES buffer to the cells either apically (A) or basally (B) and incubated for 2 hours. After 0 hours and after 2 hours, samples were taken from the cis and trans compartments. The samples were separated by HPLC (Agilent 1200, Böblingen, Germany) using reverse phase columns.
Of critical importance for toxophores which are released intracellularly is the permeability from B to A [Papp(B-A)] and the ratio of Papp(B-A) to Papp(A-B) (efflux ratio): the lower this permeability, the slower the active and passive transport processes of the substance through the monolayer of Caco-2 cells.
A general note: Caco-2 cells form a polarised layer with tight junctions and transporters.

Data set [3] addresses T1, human kinesin spindle protein KSP/Eg5 (Homo sapiens, UniProt P52732).
T1 construct: The motor domain of the human kinesin spindle protein KSP/Eg5; purchased tebu-bio/Cytoskeleton Inc 027EG01-XL
T1 sequence (P52732 18-359 limits assumed): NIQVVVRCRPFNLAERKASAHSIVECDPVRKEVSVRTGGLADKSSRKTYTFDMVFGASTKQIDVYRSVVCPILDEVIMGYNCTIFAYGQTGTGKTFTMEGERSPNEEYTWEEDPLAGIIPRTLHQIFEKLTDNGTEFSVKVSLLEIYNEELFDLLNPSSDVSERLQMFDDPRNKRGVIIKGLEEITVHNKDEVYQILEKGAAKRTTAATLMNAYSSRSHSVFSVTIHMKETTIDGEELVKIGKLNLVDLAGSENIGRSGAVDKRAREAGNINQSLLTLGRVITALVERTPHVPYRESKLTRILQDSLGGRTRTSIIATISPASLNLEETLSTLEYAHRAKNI
Nature of the data set: Inhibition of the kinesin spindle protein KSP/Eg5 (ATPase, malachite green). To be noted: 10 nM KSP motor domain, 500 μM ATP, 2 h RT. In kind it is biochemical. The method, then:
C-1b Determination of the Inhibition of the Kinesin Spindle Protein KSP/Eg5 by Selected Examples
The motor domain of the human kinesin spindle protein KSP/Eg5 (from tebu-bio/Cytoskeleton Inc, No. 027EG01-XL) is incubated at a concentration of 10 nM with 50 μg/ml taxol- (from Sigma No. T7191-5MG) stabilized microtubuli (bovine or porcine, from tebu-bio/Cytoskeleton Inc) for 5 min at RT in 15 mM PIPES, pH 6.8 (5 mM MgCl2 and 10 mM DTT, from Sigma). The freshly prepared mixture is aliquoted into a 384-well MTP. The inhibitors to be examined at concentrations of 1.0×10^−6 M to 1.0×10^−13 and ATP (final concentration 500 μM, from Sigma) are then added. Incubation is at RT for 2 h. ATPase activity is detected by detecting the inorganic phosphate formed using malachite green (from Biomol). […] The individual data of the dose-activity curve are eight-fold determinations. The IC50 values are means of three independent experiments.

For the compound `CC(C)(C)[C@H](c1cc(-c2cc(F)ccc2F)cn1Cc1ccccc1)N(CCCN)C(=O)CSCCC(NC(=O)CCOCCOCCOCCOCCNC(=O)CCN1C(=O)CC(SC[C@H](N)C(=O)O)C1=O)C(=O)O.O=C(O)C(F)(F)F` (mixture of isomers) [Example 138, N-[19-(3(R/S)-{[(2R)-2-amino-2-carboxyethyl]sulphanyl}-2,5-dioxopyrrolidin-1-yl)-17-oxo-4,7,10,13-tetraoxa-16-azanonadecan-1-oyl]-R/S-{2-[(3-aminopropyl){(1R)-1-[1-benzyl-4-(2,5-difluorophenyl)-1H-pyrrol-2-yl]-2,2-dimethylpropyl}amino]-2-oxoethyl}homocysteine/trifluoroacetic acid (1:1)], the IC50 (commonly the concentration at which inhibition is half-maximal) in data set [1] was ≥ 500 nM. In data set [2], the Papp B→A – broadly, how fast a substance crosses the layer from the basolateral side – at 2 h stood at 0.17 ×10⁻⁶ cm/s and the efflux ratio (as a rule, the permeability from basolateral to apical divided by that in the opposite direction, in the common usage) at 2 h is 1.6.
For `CC(C)(C)[C@H](c1nc(-c2cc(F)ccc2F)cn1Cc1ccccc1)N(CC[C@H](N)C(=O)NCCN)C(=O)CO.O=C(O)C(F)(F)F.O=C(O)C(F)(F)F` [Example 80, Trifluoroacetic acid/(2S)-2-amino-N-(2-aminoethyl)-4-[{(1R)-1-[1-benzyl-4-(2,5-difluorophenyl)-1H-imidazol-2-yl]-2,2-dimethylpropyl}(glycoloyl)amino]butanamide (2:1)], the IC50 in data set [3] is 3.72 nM. Moreover, in data set [2], the Papp B→A at 2 h worked out at 20 ×10⁻⁶ cm/s and the efflux ratio at 2 h was 22.
`CC(C)(C)[C@H](c1nc(-c2cc(F)ccc2F)cn1Cc1ccccc1)N(CC[C@H](N)C(=O)NCCNC(=O)CSC[C@H](N)C(=O)O)C(=O)CO.O=C(O)C(F)(F)F` [Example 97, S-(2-{[2-({(2S)-2-Amino-4-[{(1R)-1-[1-benzyl-4-(2,5-difluorophenyl)-1H-imidazol-2-yl]-2,2-dimethylpropyl}(glycoloyl)amino]butanoyl}amino)ethyl]amino}-2-oxoethyl)-L-cysteine/trifluoroacetic acid (1:1)]: the IC50 in data set [3] came out at 2.13 nM. Moreover, in data set [2], the apparent permeability from basolateral to apical (Papp B→A) at 2 h was determined as 0.56 ×10⁻⁶ cm/s and the efflux ratio at 2 h worked out at 2.
Regarding `CC(C)(C)[C@H](c1cc(-c2cc(F)ccc2F)cn1Cc1ccccc1)N(CCCN)C(=O)CO` [Example 98, N-(3-aminopropyl)-N-{(1R)-1-[1-benzyl-4-(2,5-difluorophenyl)-1H-pyrrol-2-yl]-2,2-dimethylpropyl}-2-hydroxyacetamide], the figures for the IC50 in data set [1] and in data set [3] were 1.65 nM and 1.8 nM, respectively.
The compound `CNC(=O)[C@@H](N)CCN(C(=O)CO)[C@@H](c1cc(-c2cc(F)ccc2F)cn1Cc1ccccc1)C(C)(C)C.O=C(O)C(F)(F)F` [Example 99, Trifluoroacetic acid/(2S)-2-amino-4-[{(1R)-1-[1-benzyl-4-(2,5-difluorophenyl)-1H-pyrrol-2-yl]-2,2-dimethylpropyl}(glycoloyl)amino]-N-methylbutanamide (1:1)] came in with an IC50 in data set [1] of 0.851 nM. Moreover, in data set [2], the basolateral-to-apical permeability (Papp B→A) at 2 h was 30.3 ×10⁻⁶ cm/s and the efflux ratio at 2 h came out at 8.7.
In the case of `CC(C)(C)[C@@H](c1cc(-c2cc(F)ccc2F)cn1Cc1ccccc1)N(CCCN)C(=O)CO` [Example 102, N-(3-Aminopropyl)-N-{(1S)-1-[1-benzyl-4-(2,5-difluorophenyl)-1H-pyrrol-2-yl]-2,2-dimethylpropyl}-2-hydroxyacetamide], the IC50 in data set [1] worked out at 32.9 nM; in data set [3], 4.7 nM.
With `CC(C)(C)[C@H](c1cc(-c2cc(F)ccc2F)cn1Cc1ccccc1)N(CC[C@H](N)C(=O)NCCNC(=O)CN1C(=O)CC(SC[C@H](N)C(=O)O)C1=O)C(=O)CO.O=C(O)C(F)(F)F` (stereo partly drawn) [Example 135, S-[1-(2-{[2-({(2S)-2-Amino-4-[{(1R)-1-[1-benzyl-4-(2,5-difluorophenyl)-1H-pyrrol-2-yl]-2,2-dimethylpropyl}(glycoloyl)amino]butanoyl}amino)ethyl]amino}-2-oxoethyl)-2,5-dioxopyrrolidin-3-yl]-L-cysteine/trifluoroacetic acid (1:1)], the IC50 in data set [1] was ≥ 500 nM. Besides, in data set [2], the Papp B→A at 2 h turned out to be 0.78 ×10⁻⁶ cm/s and the efflux ratio at 2 h is 4.
In data set [1], `CC(C)(C)[C@H](c1cc(-c2cc(F)ccc2F)cn1Cc1ccccc1)N(CC[C@H](N)C(=O)NCCNC(=O)CSC[C@H](N)C(=O)O)C(=O)CO.O=C(O)C(F)(F)F` [Example 158, S-(2-{[2-({(2S)-2-Amino-4-[{(1R)-1-[1-benzyl-4-(2,5-difluorophenyl)-1H-pyrrol-2-yl]-2,2-dimethylpropyl}(glycoloyl)amino]butanoyl}amino)ethyl]amino}-2-oxoethyl)-L-cysteine/trifluoroacetic acid (1:1)] showed an IC50 of 22.2 nM. In addition, in data set [2], the Papp B→A at 2 h worked out at 0.56 ×10⁻⁶ cm/s and the efflux ratio at 2 h came to 2.2.
In the case of `CC(C)(C)[C@H](c1cc(-c2cc(F)ccc2F)cn1Cc1ccccc1)N(CC[C@H](N)C(=O)NCCNC(=O)CC[C@H](N)C(=O)O)C(=O)CO.O=C(O)C(F)(F)F` [Example 161, N-[2-({(2S)-2-Amino-4-[{(1R)-1-[1-benzyl-4-(2,5-difluorophenyl)-1H-pyrrol-2-yl]-2,2-dimethylpropyl}(glycoloyl)amino]butanoyl}amino)ethyl]-L-glutamine/trifluoroacetic acid (1:1)], in data set [1], the midpoint of inhibition, the IC50, lay at 35.5 nM. The compound also came in with a basolateral-to-apical permeability (Papp B→A) at 2 h in data set [2] of 0.16 ×10⁻⁶ cm/s.
`CC(C)(C)[C@H](c1cc(-c2cc(F)ccc2F)cn1Cc1ccccc1)N(CC[C@H](N)C(=O)NCCC(=O)NCCCC[C@H](N)C(=O)O)C(=O)CO.O=C(O)C(F)(F)F` [Example 162, N^6-(N-(2S)-2-Amino-4-[{(1R)-1-[1-benzyl-4-(2,5-difluorophenyl)-1H-pyrrol-2-yl]-2,2-dimethylpropyl (glycoloyl)amino]butanoyl}-beta-alanyl)-L-lysine/trifluoroacetic acid (1:1)] came in with an IC50 in data set [1] of 121 nM. In addition, the apparent permeability from basolateral to apical (Papp B→A) at 2 h in data set [2] turned out to be 0.2 ×10⁻⁶ cm/s.
In the case of `CC(=O)N(CCCN)[C@@H](c1nn(-c2cc(F)ccc2F)cc1Cc1ccccc1)C(C)(C)C` [Example 181, N-(3-Aminopropyl)-N-{(1R)-1-[4-benzyl-1-(2,5-difluorophenyl)-1H-pyrazol-3-yl]-2,2-dimethylpropyl}acetamide], the IC50 in data set [1] was found to be 7.72 nM; in data set [3], 7.9 nM.
Take `COCC(=O)N(CCCN)[C@@H](c1nn(-c2cc(F)ccc2F)cc1Cc1ccccc1)C(C)(C)C` [Example 182, N-(3-aminopropyl)-N-{(1R)-1-[4-benzyl-1-(2,5-difluorophenyl)-1H-pyrazol-3-yl]-2,2-dimethylpropyl}-2-methoxyacetamide]: the IC50 was 1.2 nM in data set [1] and 10.4 nM in data set [3].
For `CC(C)(C)[C@H](c1nn(-c2cc(F)ccc2F)cc1Cc1ccccc1)N(CCCN)C(=O)c1ccc(F)cc1F` [Example 183, N-(3-aminopropyl)-N-{(1R)-1-[4-benzyl-1-(2,5-difluorophenyl)-1H-pyrazol-3-yl]-2,2-dimethylpropyl}-2,4-difluorobenzamide] the same measures were 32.9 nM and 6.21 nM.
On to `CC(C)(C)[C@H](c1cc(-c2cc(F)ccc2F)cn1Cc1ccccc1)N(CC[C@H](N)C(=O)O)C(=O)CO.Cl` [Example 197, (2S)-2-Amino-4-[{(1R)-1-[1-benzyl-4-(2,5-difluorophenyl)-1H-pyrrol-2-yl]-2,2-dimethylpropyl}(glycoloyl)amino]butanoic acid hydrochloride (1:1)], for which the IC50 in data set [1] stood at 7.35 nM. Moreover, in data set [2], the Papp B→A at 2 h worked out at 9.3 ×10⁻⁶ cm/s.
